Laboratory results: US11446287B2, “Compounds and methods for EP300 or CBP modulation and indications therefor” (Opna Immuno-Oncology SA, priority 2019, dated 2022)

molecular target: T1, Recombinant human BRD4 containing dual bromodomains (BRD4-BD12 (1-477)) (Homo sapiens, UniProt O60885); assay: BRD4 Alphascreen binding assay
T1 construct: Recombinant human BRD4 containing dual bromodomains (BRD4-BD12 (1-477)); made in house; host or cells: E. coli BL21-CodonPlus (DE3), modified pET vector
How it was run: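 AlphaScreen proximity between Ni-chelate-bound BRD4-BD12 (1-477) and streptavidin-captured H4 K5/K8/K12/K16-acetyl peptide measured after 1 h room-temperature compound incubation and 30 min with 7.5 μg/ml beads. Buffer: 50 mM HEPES pH 7.5, 50 mM NaCl, 0.01% BSA, 0.01% Triton X-100; data plate-normalized and four-parameter fit for IC50.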

Row | Structure (SMILES) | IC50
1 | Cc1noc(C)c1-c1cnc2c(c1)c(-c1ccc(C(=O)O)cc1)cn2[C@@H](C)c1ccccn1 [P-0001, (S)-4-(5-(3,5-dimethylisoxazol-4-yl)-1-(1-(pyridin-2-yl)ethyl)-1H-pyrrolo[2,3-b]pyridin-3-yl)benzoic acid] | 8 to 1000 µM
2 | Cc1noc(C)c1-c1cnc2c(c1)c(-c1ccc(C(=O)O)cc1)cn2C(c1ccccn1)C1CCCC1 (stereo not shown) [P-0002, 4-(1-(cyclopentyl(pyridin-2-yl)methyl)-5-(3,5-dimethylisoxazol-4-yl)-1H-pyrrolo[2,3-b]pyridin-3-yl)benzoic acid] | 0.0001 to 1 µM
3 | Cc1noc(C)c1-c1cnc2c(c1)c(-c1ccccc1)cn2C(c1ccccn1)C1CCCC1 (stereo not shown) [P-0003, 4-(1-(cyclopentyl(pyridin-2-yl)methyl)-3-phenyl-1H-pyrrolo[2,3-b]pyridin-5-yl)-3,5-dimethylisoxazole] | 8 to 1000 µM
4 | Cc1noc(C)c1-c1cnc2c(c1)c(-c1ccc(C(=O)O)cc1)cn2C(c1ccccn1)C1CCCCC1 (stereo not shown) [P-0004, 4-(1-(cyclohexyl(pyridin-2-yl)methyl)-5-(3,5-dimethylisoxazol-4-yl)-1H-pyrrolo[2,3-b]pyridin-3-yl)benzoic acid] | 8 to 1000 µM
5 | COC(=O)c1ccc(-c2cn(S(=O)(=O)c3ccc(C)cc3)c3ncc(-c4c(C)noc4C)cc23)cc1 [P-0005, methyl 4-(5-(3,5-dimethylisoxazol-4-yl)-1-tosyl-1H-pyrrolo[2,3-b]pyridin-3-yl)benzoate] | 8 to 1000 µM
6 | Cc1noc(C)c1-c1cnc2c(c1)c(-c1ccnc(C(=O)O)c1)cn2S(=O)(=O)c1ccccc1 [P-0055, 4-(5-(3,5-dimethylisoxazol-4-yl)-1-(phenylsulfonyl)-1H-pyrrolo[2,3-b]pyridin-3-yl)picolinic acid] | 0.0001 to 1 µM
7 | COc1cccc(Cn2cc(-c3cccc(C(=O)O)c3)c3cc(-c4c(C)noc4C)cnc32)c1 [P-0056, 3-(5-(3,5-dimethylisoxazol-4-yl)-1-(3-methoxybenzyl)-1H-pyrrolo[2,3-]pyridin-3-yl)benzoic acid] | 1 to 8 µM
8 | COc1cccc(Cn2cc(-c3ccnc(C(=O)O)c3)c3cc(-c4c(C)noc4C)cnc32)c1 [P-0057, 4-(5-(3,5-dimethylisoxazol-4-yl)-1-(3-methoxybenzyl)-1H-pyrrolo[2,3-b]pyridin-3-yl)picolinic acid] | 1 to 8 µM
9 | Cc1noc(C)c1-c1cnc2c(c1)c(-c1cccc(C(=O)O)c1)cn2C(C1CC1)C1CC1 [P-0058, 3-(1-(dicyclopropylmethyl)-5-(3,5-dimethylisoxazol-4-yl)-1H-pyrrolo[2,3-b]pyridin-3-yl)benzoic acid] | 8 to 1000 µM
10 | Cc1noc(C)c1-c1cnc2c(c1)c(-c1cccc(C(=O)O)c1)cn2Cc1cccc(OC(F)(F)F)c1 [P-0059, 3-(5-(3,5-dimethylisoxazol-4-yl)-1-(3-(trifluoromethoxy)benzyl)-1H-pyrrolo[2,3-b]pyridin-3-yl)benzoic acid] | 8 to 1000 µM
11 | Cc1noc(C)c1-c1cnc2c(c1)c(-c1cccc(C(=O)O)c1)cn2Cc1cccc(F)c1 [P-0060, 3-(5-(3,5-dimethylisoxazol-4-yl)-1-(3-fluorobenzyl)-1H-pyrrolo[2,3-b]pyridin-3-yl)benzoic acid] | 1 to 8 µM
12 | Cc1noc(C)c1-c1cnc2c(c1)c(-c1cccc(C(=O)O)c1)cn2Cc1cccc(Cl)c1 [P-0061, 3-(1-(3-chlorobenzyl)-5-(3,5-dimethylisoxazol-4-yl)-1H-pyrrolo[2,3-b]pyridin-3-yl)benzoic acid] | 8 to 1000 µM
13 | Cc1cccc(Cn2cc(-c3cccc(C(=O)O)c3)c3cc(-c4c(C)noc4C)cnc32)c1 [P-0062, 3-(5-(3,5-dimethylisoxazol-4-yl)-1-(3-methylbenzyl)-1H-pyrrolo[2,3-b]pyridin-3-yl)benzoic acid] | 8 to 1000 µM
14 | Cc1noc(C)c1-c1cnc2c(c1)c(-c1cccc(C(=O)O)c1)cn2Cc1cccc(C(F)(F)F)c1 [P-0063, 3-(5-(3,5-dimethylisoxazol-4-yl)-1-(3-(trifluoromethyl)benzyl)-1H-pyrrolo[2,3-b]pyridin-3-yl)benzoic acid] | 8 to 1000 µM
15 | Cc1noc(C)c1-c1cnc2c(CC3CCC3)cn(-c3ccc(C(=O)O)cc3OC(F)F)c2c1 [P-0064, 4-(3-(cyclobutylmethyl)-6-(3,5-dimethylisoxazol-4-yl)-1H-pyrrolo[3,2-b]pyridin-1-yl)-3-(difluoromethoxy)benzoic acid] | 1 to 8 µM
16 | Cc1noc(C)c1-c1cnc2c(CC3CC3)cn(-c3ccnc(C(=O)O)c3)c2c1 [P-0065, 4-(3-(cyclopropylmethyl)-6-(3,5-dimethylisoxazol-4-yl)-1H-pyrrolo[3,2-b]pyridin-1-yl)picolinic acid] | 1 to 8 µM
17 | Cc1noc(C)c1-c1cnc2c(CC3CCC3)cn(-c3ccc(C(=O)O)cc3OC(F)(F)F)c2c1 [P-0066, 4-(3-(cyclobutylmethyl)-6-(3,5-dimethylisoxazol-4-yl)-1H-pyrrolo[3,2-b]pyridin-1-yl)-3-(trifluoromethoxy)benzoic acid] | 8 to 1000 µM

Row | Structure (SMILES) | IC50
18 | COc1cc(C(=O)O)cc(OC)c1-n1cc(CC2CCC2)c2ncc(-c3c(C)noc3C)cc21 [P-0067, 4-(3-(cyclobutylmethyl)-6-(3,5-dimethylisoxazol-4-yl)-1H-pyrrolo[3,2-b]pyridin-1-yl)-3,5-dimethoxybenzoic acid] | 1 to 8 µM
19 | Cc1noc(C)c1-c1cnc2c(CC3CCC3)cn(-c3ccc(S(C)(=O)=O)c(F)c3)c2c1 [P-0068, 4-(3-(cyclobutylmethyl)-1-(3-fluoro-4-(methylsulfonyl)phenyl)-1H-pyrrolo[3,2-b]pyridin-6-yl)-3,5-dimethylisoxazole] | 8 to 1000 µM
20 | Cc1noc(C)c1-c1cnc2c(c1)c(C#CC(=O)O)cn2Cc1ccccc1 [P-0069, 3-(1-benzyl-5-(3,5-dimethylisoxazol-4-yl)-1H-pyrrolo[2,3-b]pyridin-3-yl)propiolic acid] | 8 to 1000 µM
21 | Cc1noc(C)c1-c1cnc2c(c1)c(-c1ccc(C(=O)O)cc1OC(F)(F)F)cn2[C@@H](C)c1ccccn1 [P-0070, (S)-4-(5-(3,5-dimethylisoxazol-4-yl)-1-(1-(pyridin-2-yl)ethyl)-1H-pyrrolo[2,3-b]pyridin-3-yl)-3-(trifluoromethoxy)benzoic acid] | 8 to 1000 µM
22 | Cc1noc(C)c1-c1cnc2c(c1)c(-c1ccc(C(=O)O)cc1OC(F)F)cn2[C@@H](C)c1ccccn1 [P-0071, (S)-3-(difluoromethoxy)-4-(5-(3,5-dimethylisoxazol-4-yl)-1-(1-(pyridin-2-yl)ethyl)-1H-pyrrolo[2,3-b]pyridin-3-yl)benzoic acid] | 1 to 8 µM
23 | Cc1noc(C)c1-c1cnc2c(c1)c(-c1cccc(C(=O)O)c1)cn2C(C1CCC1)C1CCC1 [P-0072, 3-(1-(dicyclobutylmethyl)-5-(3,5-dimethylisoxazol-4-yl)-1H-pyrrolo[2,3-b]pyridin-3-yl)benzoic acid] | 1 to 8 µM
24 | Cc1noc(C)c1-c1cnc2c(c1)c(-c1cccc(C(=O)O)c1)cn2C(c1ccccn1)C1CCC1 (stereo not shown) [P-0073, 3-(1-(cyclobutyl(pyridin-2-yl)methyl)-5-(3,5-dimethylisoxazol-4-yl)-1H-pyrrolo[2,3-b]pyridin-3-yl)benzoic acid] | 8 to 1000 µM
25 | Cc1noc(C)c1-c1cnc2c(CC3CCC3)cn(-c3c(Cl)cc(C(=O)O)cc3Cl)c2c1 [P-0074, 3,5-dichloro-4-(3-(cyclobutylmethyl)-6-(3,5-dimethylisoxazol-4-yl)-1H-pyrrolo[3,2-b]pyridin-1-yl)benzoic acid] | 8 to 1000 µM
26 | Cc1cc(C(=O)O)cnc1-n1cc(CC2CCC2)c2ncc(-c3c(C)noc3C)cc21 [P-0075, 6-(3-(cyclobutylmethyl)-6-(3,5-dimethylisoxazol-4-yl)-1H-pyrrolo[3,2-b]pyridin-1-yl)-5-methylnicotinic acid] | 8 to 1000 µM
27 | Cc1noc(C)c1-c1cnc2c(CC3CCC3)cn(-c3ccc(C#N)cc3)c2c1 [P-0076, 4-(3-(cyclobutylmethyl)-6-(3,5-dimethylisoxazol-4-yl)-1H-pyrrolo[3,2-b]pyridin-1-yl)benzonitrile] | 8 to 1000 µM
28 | Cc1noc(C)c1-c1cnc2c(CC3CCC3)cn(-c3ccnc(C#N)c3)c2c1 [P-0077, 4-(3-(cyclobutylmethyl)-6-(3,5-dimethylisoxazol-4-yl)-1H-pyrrolo[3,2-b]pyridin-1-yl)picolinonitrile] | 1 to 8 µM
29 | Cc1noc(C)c1-c1cnc2c(c1)c(-c1cccc(C(=O)NC#N)c1)cn2Cc1ccccc1 [P-0078, 3-(1-benzyl-5-(3,5-dimethylisoxazol-4-yl)-1H-pyrrolo[2,3-b]pyridin-3-yl)-N-cyanobenzamide] | 1 to 8 µM
30 | Cc1noc(C)c1-c1cnc2c(c1)c(-c1cccc(C(=O)NO)c1)cn2Cc1ccccc1 [P-0079, 3-(1-benzyl-5-(3,5-dimethylisoxazol-4-yl)-1H-pyrrolo[2,3-b]pyridin-3-yl)-N-hydroxybenzamide] | 1 to 8 µM
31 | Cc1noc(C)c1-c1cnc2c(c1)c(-c1ccc(C(=O)O)cc1)cn2C(C)c1ccccn1 (stereo not shown) [P-0080, 4-(5-(3,5-dimethylisoxazol-4-yl)-1-(1-(pyridin-2-yl)ethyl)-1H-pyrrolo[2,3-b]pyridin-3-yl)benzoic acid] | 1 to 8 µM
32 | Cc1noc(C)c1-c1cnc2c(c1)c(-c1cccc(S(N)(=O)=O)c1)cn2Cc1ccccc1 [P-0081, 3-(1-benzyl-5-(3,5-dimethylisoxazol-4-yl)-1H-pyrrolo[2,3-b]pyridin-3-yl)benzenesulfonamide] | 1 to 8 µM
33 | CNS(=O)(=O)c1cccc(-c2cn(Cc3ccccc3)c3ncc(-c4c(C)noc4C)cc23)c1 [P-0082, 3-(1-benzyl-5-(3,5-dimethylisoxazol-4-yl)-1H-pyrrolo[2,3-b]pyridin-3-yl)-N-methylbenzenesulfonamide] | 1 to 8 µM
34 | Cc1noc(C)c1-c1cnc2c(c1)c(-c1cccc(S(=O)(=O)NC3CC3)c1)cn2Cc1ccccc1 [P-0083, 3-(1-benzyl-5-(3,5-dimethylisoxazol-4-yl)-1H-pyrrolo[2,3-b]pyridin-3-yl)-N-cyclopropylbenzenesulfonamide] | 1 to 8 µM
